The results in this text go back to ChEMBL document CHEMBL5506055, “Hit-to-Lead Optimization of the Natural Product Oridonin as Novel NLRP3 Inflammasome Inhibitors with Potent Anti-Inflammation Activity” (J Med Chem, 2024).

The source made the active and inactive calls.

Data set [1] concerns the target NACHT, LRR and PYD domains-containing protein 3 (Mus musculus) (UniProt Q8R4B8). Nature of the data set: Inhibition of NLRP3 inflammasome activation in LPS/alum-induced C57BL/6 mouse BMDMs at 200 nM preincubated with LPS for 18 hrs followed by compound addition for 30 mins and further stimulated with alum for 8 hrs by ELISA. As to conditions: BMDM, time 8.5 hrs. In kind it is cell-based. For orientation: An ELISA detects its analyte on a solid surface through an enzyme-linked reagent.

Data set [2] relates to Mus musculus. Nature of the data set: Antiinflammatory activity in C57BL/6 mouse model of arthritis assessed as reduction in MSU-induced joint swelling at 12.5 to 25 mg/kg, iv measured upto 24 hrs. The format is functional, organism-based. The settings on record: dose 12.5-25 mg/kg.
Data set [3] can be described thus: Stability in human liver microsomes assessed as half life preincubated for 5 mins with NADPH followed by compound addition and measured upto 120 mins by LC-MS/MS analysis. In kind it is ADME, Microsome. The settings on record: time < 125 min. (In general: Microsomes from liver hold many membrane-bound enzymes, among them those of drug oxidation.)
Data set [4] is described as follows: Half-life in ICR mouse at 1 mg/kg, iv measured upto 24 hrs by LC-MS/MS method. In kind it is ADME, organism-based. As to conditions: in vivo.
The nature of data set [5]: Clearance in ICR mouse at 1 mg/kg, iv measured upto 24 hrs by LC-MS/MS method. The format is ADME, organism-based. As to conditions: in vivo.
Data set [6] has as its target NACHT, LRR and PYD domains-containing protein 3 (Mus musculus) (UniProt Q8R4B8). As to the kind of experiment: Binding affinity to NLRP3 in mouse BMDMs at 100 uM incubated for 30 mins by CETSA. The format is cell-based. As to conditions: BMDM.
The nature of data set [7]: AUC in ICR mouse at 10 mg/kg, po measured upto 24 hrs by LC-MS/MS method. In kind it is ADME, organism-based. The settings on record: in vivo, po, 10 mg/kg, 24 h.
The target of data set [8] is NACHT, LRR and PYD domains-containing protein 3 (Mus musculus) (UniProt Q8R4B8). Nature of the data set: Inhibition of NLRP3 inflammasome activation in LPS/ATP-induced C57BL/6 mouse BMDMs assessed as reduction in IL-1beta secretion at 500 nM preincubated with LPS for 4 hrs followed by compound addition for 30 mins and further stimulated with ATP for 30 mins by ELISA relative to control. In kind it is cell-based. As to conditions: BMDM, time 1.0 hrs.

Data set [9] shares this target. Nature of the data set: Inhibition of NLRP3 inflammasome activation in LPS/ATP-induced C57BL/6 mouse BMDMs assessed as inhibition of ASC oligomerization by measuring reduction in pro-caspase-1 expression at 50 to 200 nM preincubated with LPS for 4 hrs followed by compound addition for 30 mins and further stimulated with ATP for 30 mins by Western blotting analysis. As to conditions: BMDM, dose 50-200 nM, time 1.0 hrs. In kind it is cell-based.

The target is the same in data set [10]. As to the kind of experiment: Inhibition of NLRP3 inflammasome activation in LPS/ATP-induced C57BL/6 mouse BMDMs assessed as reduction in TNFalpha production at 50 to 200 nM preincubated with compound prior to LPS addition for 30 mins and further stimulated with ATP for 30 mins by Western blotting analysis. In kind it is cell-based. As to conditions: BMDM, dose 50-200 nM, time 60.0 min. Background: Immunoblotting shows a protein as a band on a membrane.

For data set [11], the target named is T1, Interferon-inducible protein AIM2 (Mus musculus) (UniProt Q91VJ1).
T1 sequence (whole entry): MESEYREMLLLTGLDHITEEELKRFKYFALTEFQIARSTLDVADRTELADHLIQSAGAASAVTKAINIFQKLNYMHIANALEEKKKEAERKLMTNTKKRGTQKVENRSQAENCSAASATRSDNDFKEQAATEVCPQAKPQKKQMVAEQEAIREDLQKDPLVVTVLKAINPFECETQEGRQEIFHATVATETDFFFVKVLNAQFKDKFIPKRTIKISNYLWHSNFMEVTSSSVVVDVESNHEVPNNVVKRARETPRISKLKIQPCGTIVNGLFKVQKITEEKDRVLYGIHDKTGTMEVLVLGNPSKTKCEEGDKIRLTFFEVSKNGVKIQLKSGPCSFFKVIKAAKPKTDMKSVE
Nature of the data set: Inhibition of AIM2 inflammasome activation in LPS/flagellin-induced C57BL/6 mouse BMDMs at 200 nM […] for 4 hrs followed by compound addition for 30 mins and further stimulated with flagellin for 4 hrs. The settings on record: BMDM, time 4.5 hrs. The format is cell-based.

Data set [12] has as its system Mus musculus. As to the kind of experiment: Antiinflammatory activity in C57BL/6 mouse model of arthritis assessed as reduction in MSU-induced IL-1beta secretion at 12.5 to 25 mg/kg, iv measured upto 24 hrs. The format is functional, organism-based. The settings on record: dose 12.5-25 mg/kg.
Data set [13] concerns Mus musculus. Nature of the data set: Antiinflammatory activity in MSU-induced C57BL/6 mouse model of arthritis assessed as reduction in inflammatory cell infiltration at 100 mg/kg, po measured after 24 hrs. The format is functional, organism-based.
Data set [14] can be described thus: AUC in ICR mouse at 1 mg/kg, iv measured upto 24 hrs by LC-MS/MS method. In kind it is ADME, organism-based. The settings on record: in vivo, iv, 1 mg/kg, 24 h.
For data set [15], the system named is Mus musculus. As to the kind of experiment: Antiinflammatory activity in C57BL/6 mouse model of arthritis assessed as reduction in MSU-induced TNFalpha secretion at 12.5 to 25 mg/kg, iv measured upto 24 hrs. The format is functional, organism-based. The settings on record: dose 12.5-25 mg/kg.
Data set [16] is described as follows: Stability in human plasma assessed as half life measured upto 8 hrs. In kind it is ADME, cell-free.
In data set [17] the target is NLRP3-NEK7 (Mus musculus) (UniProt Q8R4B8+Q9ES74). Nature of the data set: Inhibition of NLRP3/NEK7 protein-protein interaction in LPS/ATP-induced C57BL/6 mouse BMDMs at 200 nM preincubated with LPS for 4 hrs followed by compound addition for 30 mins and further stimulated with ATP for 30 mins by Western blotting analysis. The format is cell-based. As to conditions: BMDM, time 1.0 hrs.

Data set [18] addresses NACHT, LRR and PYD domains-containing protein 3 (Mus musculus) (UniProt Q8R4B8). As to the kind of experiment: Inhibition of NLRP3 inflammasome activation in LPS/ATP-induced C57BL/6 mouse BMDMs assessed as reduction in pro-IL-1beta production at 50 to 200 nM preincubated with compound prior to LPS addition for 30 mins and further stimulated with ATP for 30 mins by Western blotting analysis. In kind it is cell-based. The settings on record: BMDM, dose 50-200 nM, time 60.0 min.

For data set [19], the target named is NACHT, LRR and PYD domains-containing protein 3 (Mus musculus, UniProt Q8R4B8). Nature of the data set: Inhibition of NLRP3 inflammasome activation in LPS/ATP-induced C57BL/6 mouse BMDMs assessed as reduction in IL-1beta secretion preincubated with LPS for 4 hrs followed by compound addition for 30 mins and further stimulated with ATP for 30 mins by ELISA. The format is cell-based, BMDM.

The subject of data set [20] is Mus musculus. Nature of the data set: Antiinflammatory activity in MSU-induced C57BL/6 mouse model of arthritis at 100 mg/kg, po measured upto 24 hrs. The format is functional, organism-based.
A short description of data set [21]: Stability in rat liver microsomes assessed as half life preincubated for 5 mins with NADPH followed by compound addition and measured upto 120 mins by LC-MS/MS analysis. The settings on record: time < 125 min. In kind it is ADME, Microsome.
The target in data set [22] is NACHT, LRR and PYD domains-containing protein 3 (Mus musculus) (UniProt Q8R4B8). As to the kind of experiment: Inhibition of NLRP3 inflammasome activation in LPS/ATP-induced C57BL/6 mouse BMDMs assessed as reduction in NLRP3 expression preincubated with compound prior to LPS addition for 30 mins and further stimulated with ATP for 30 mins by Western blotting analysis. The format is cell-based. The settings on record: BMDM, dose 50-200 nM, time 60.0 min.

For data set [23] the target is unchanged. As to the kind of experiment: Inhibition of NLRP3 inflammasome activation in LPS/ATP-induced C57BL/6 mouse BMDMs assessed as inhibition of ASC oligomerization by measuring reduction in NLRP3 expression at 50 to 200 nM preincubated with LPS for 4 hrs followed by compound addition for 30 mins and further stimulated with ATP for 30 mins by Western blotting analysis. The format is cell-based. As to conditions: BMDM, dose 50-200 nM, time 1.0 hrs.

Data set [24] shares this target. Nature of the data set: Inhibition of NLRP3 inflammasome activation in LPS/ATP-induced C57BL/6 mouse BMDMs assessed as reduction in TNFalpha level at 1000 nM preincubated for 30 mins followed by LPS addition for 4 hrs and further ATP stimulation for 30 mins by ELISA. The format is cell-based. The settings on record: BMDM, time 5.0 hrs.

Chain of NACHT, LRR and PYD domains-containing protein 3 (Mus musculus) (Q8R4B8 whole entry, the tested form may be a part): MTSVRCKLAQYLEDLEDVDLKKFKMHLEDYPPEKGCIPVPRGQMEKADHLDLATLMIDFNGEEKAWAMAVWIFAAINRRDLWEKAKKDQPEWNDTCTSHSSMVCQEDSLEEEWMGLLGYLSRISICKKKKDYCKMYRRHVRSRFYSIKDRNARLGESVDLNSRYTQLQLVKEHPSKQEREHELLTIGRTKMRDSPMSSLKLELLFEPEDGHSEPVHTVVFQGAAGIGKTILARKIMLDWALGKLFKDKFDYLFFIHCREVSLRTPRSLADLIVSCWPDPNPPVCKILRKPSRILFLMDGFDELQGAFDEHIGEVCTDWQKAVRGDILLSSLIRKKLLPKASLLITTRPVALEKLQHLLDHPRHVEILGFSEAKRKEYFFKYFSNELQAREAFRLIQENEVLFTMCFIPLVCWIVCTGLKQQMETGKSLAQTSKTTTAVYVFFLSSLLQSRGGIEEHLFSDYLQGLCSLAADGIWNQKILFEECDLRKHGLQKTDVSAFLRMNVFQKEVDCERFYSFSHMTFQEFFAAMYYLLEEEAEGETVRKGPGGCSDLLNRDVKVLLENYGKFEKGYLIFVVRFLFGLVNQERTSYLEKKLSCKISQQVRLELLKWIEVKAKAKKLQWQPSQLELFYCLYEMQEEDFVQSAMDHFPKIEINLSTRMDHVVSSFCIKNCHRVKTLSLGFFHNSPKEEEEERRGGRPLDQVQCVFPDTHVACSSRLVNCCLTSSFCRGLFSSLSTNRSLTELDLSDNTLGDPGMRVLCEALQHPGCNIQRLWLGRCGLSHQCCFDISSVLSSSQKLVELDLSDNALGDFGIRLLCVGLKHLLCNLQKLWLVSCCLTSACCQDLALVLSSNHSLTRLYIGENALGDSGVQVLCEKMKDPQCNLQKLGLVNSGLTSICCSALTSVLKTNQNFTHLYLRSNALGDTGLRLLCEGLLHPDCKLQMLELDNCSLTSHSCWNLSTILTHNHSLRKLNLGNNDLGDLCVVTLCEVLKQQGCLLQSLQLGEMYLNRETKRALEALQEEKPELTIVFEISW
Chain of NACHT, LRR and PYD domains-containing protein 3 (Q8R4B8 whole entry, the tested form may be a part): as above
Chain of NLRP3-NEK7 (Mus musculus) (Q8R4B8 whole entry, looked up): as the sequence (Q8R4B8 whole entry, the tested form may be a part) above
Chain of NLRP3-NEK7 (Mus musculus) (Q9ES74 whole entry, looked up): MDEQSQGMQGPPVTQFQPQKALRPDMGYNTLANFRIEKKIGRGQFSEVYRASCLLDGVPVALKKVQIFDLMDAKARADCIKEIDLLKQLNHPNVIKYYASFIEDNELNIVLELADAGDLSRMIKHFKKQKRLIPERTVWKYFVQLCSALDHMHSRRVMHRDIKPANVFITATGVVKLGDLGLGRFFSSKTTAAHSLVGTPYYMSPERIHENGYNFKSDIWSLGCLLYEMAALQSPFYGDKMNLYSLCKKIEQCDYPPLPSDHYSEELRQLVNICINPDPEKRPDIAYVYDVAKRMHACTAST

As for `C=C1C(=O)[C@]23[C@H](O)[C@H]1CC[C@H]2[C@]12C=CCC(C)(C)[C@H]1[C@H](O)[C@@]3(OCCC(=O)O)OC2`, the inhibition result in data set [1], in data set [11], in data set [17], in data set [18] and in [24] was “Active” in each case. The outcome in data set [2], in [6], in [12], in data set [13], in [15] and in data set [20] was Active. The half-life (usually the time needed for the level to fall by half in the phase considered) in data set [3] is 3.03 h; in data set [4] it was 1.98 h; in [16], 6.92 h; in data set [21], 3.19 h. The clearance (usually a measure of how efficiently the substance is removed, as volume per time) in [5] came to 69.1 mL/min/kg. Besides, the area under the curve (AUC) – broadly, concentration integrated over time – came to 525.5 ng·h/mL in data set [7] and 242 ng·h/mL in data set [14]. Moreover, the inhibition (as a rule, how much of the control response was suppressed) in data set [8] was found to be 95.3%. Further, the inhibition result in data set [9], in [10], in [22] and in data set [23] was “inactive” in each case. In [19], the IC50 (commonly the concentration that gives 50% inhibition) stood at 77.2 nM.
